IC50 data for 13 compounds are collected here from patent US7598258B2, “Quinoline derivatives and quinazoline derivatives inhibiting autophosphorylation of macrophage colony stimulating factor receptor” (Kirin Beer Kabushiki Kaisha, priority 2002, dated 2009).

Structures are written as SMILES. pIC50: −log10 of the molar value.

This experiment has as its target T1, mouse c-fms (Mus musculus, UniProt P09581).
T1 construct: Macrophage-like cell line BAC-1.2F5 which expresses c-fms as a M-CSF receptor on cell membranes; endogenous in cells; host or cells: BAC-1.2F5 mouse macrophage-like cell line
T1 sequence (P09581 20-977): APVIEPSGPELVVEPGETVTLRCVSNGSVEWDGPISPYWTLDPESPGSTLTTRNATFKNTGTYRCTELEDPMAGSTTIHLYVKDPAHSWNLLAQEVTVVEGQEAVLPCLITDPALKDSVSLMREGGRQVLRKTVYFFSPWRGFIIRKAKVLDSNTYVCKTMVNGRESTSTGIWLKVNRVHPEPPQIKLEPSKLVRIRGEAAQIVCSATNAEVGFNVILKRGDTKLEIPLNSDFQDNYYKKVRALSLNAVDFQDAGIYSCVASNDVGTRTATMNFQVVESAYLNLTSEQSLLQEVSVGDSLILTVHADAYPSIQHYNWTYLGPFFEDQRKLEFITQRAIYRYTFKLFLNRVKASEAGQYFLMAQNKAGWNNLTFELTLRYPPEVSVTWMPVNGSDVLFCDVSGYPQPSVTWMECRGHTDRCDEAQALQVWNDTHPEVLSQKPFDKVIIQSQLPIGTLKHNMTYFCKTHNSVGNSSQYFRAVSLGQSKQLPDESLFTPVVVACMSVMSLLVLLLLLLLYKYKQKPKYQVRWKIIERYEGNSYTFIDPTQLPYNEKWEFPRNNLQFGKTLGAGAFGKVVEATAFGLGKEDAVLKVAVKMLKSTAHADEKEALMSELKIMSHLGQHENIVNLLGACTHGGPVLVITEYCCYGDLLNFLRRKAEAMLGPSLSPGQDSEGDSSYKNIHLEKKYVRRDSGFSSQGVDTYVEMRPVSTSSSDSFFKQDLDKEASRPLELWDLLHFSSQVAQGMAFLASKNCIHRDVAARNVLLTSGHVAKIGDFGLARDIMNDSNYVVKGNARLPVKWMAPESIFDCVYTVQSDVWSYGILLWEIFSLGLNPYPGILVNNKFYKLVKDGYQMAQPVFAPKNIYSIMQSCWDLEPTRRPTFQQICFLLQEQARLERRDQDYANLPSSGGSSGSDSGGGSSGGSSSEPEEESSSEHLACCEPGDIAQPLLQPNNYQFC
The experiment can be described thus: Inhibition of c-fms autophosphorylation in macrophage-like cell line BAC-1.2F5 by M-CSF stimulation (ELISA). Particulars: BAC-1.2F5 cells, human recombinant M-CSF 50 ng/ml, read-out: c-fms autophosphorylation 50% inhibitory concentration (IC50). Format: cell-based. In a few lines:
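BAC-1.2F5 cells serum-starved (0.1% FCS) 12 h, preincubated with compound 1 h at 37° C, then stimulated 6 min with 50 ng/ml human recombinant M-CSF. Lysates captured on anti-phosphotyrosine plates, detected with anti-c-fms antiserum and peroxidase read-out at 450 nm. IC50 from inhibition normalised between ±M-CSF controls.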
(In an ELISA, binding on a coated surface is turned into a signal by an enzyme label.)
Regarding `COc1cc2nccc(Oc3ccc(NC(=O)NC(C)c4nc(C)cs4)cc3)c2cc1OC` (stereo not shown) [Example 91, N-{4-[(6,7-Dimethoxy-4-quinolyl)oxy]phenyl}-N′-[1-(4-methyl-1,3-thiazol-2-yl)ethyl]urea], the pIC50 was 8.49.
The value for `COc1cc2nccc(Oc3ccc(NC(=O)NC(C)c4nccs4)cc3OC)c2cc1OC` (stereo not shown) [Example 80, N-{4-[(6,7-Dimethoxy-4-quinolyl)oxy]-3-methoxyphenyl}-N′-[1-(1,3-thiazol-2-yl)ethyl]urea] was 8.21.
The value for `COc1cc(Oc2ccnc3cc(OC)c(OC)cc23)ccc1NC(=O)N[C@H](C)c1ccc(F)cc1` [Example 18, N-{4-[(6,7-Dimethoxy-4-quinolyl)oxy]-2-methoxyphenyl}-N′-[(1R)-1-(4-fluorophenyl)ethyl]urea] was 8.43; that for `COc1cc2nccc(Oc3ccc(NC(=O)N[C@H](C)c4cccc(Br)c4)cc3OC)c2cc1OC` [Example 61, N-[(1R)-1-(3-Bromophenyl)ethyl]-N′-{4-[(6,7-dimethoxy-4-quinolyl)oxy]-3-methoxyphenyl}urea] was 7.35.
The value for `COc1cc2nccc(Oc3ccc(NC(=O)N[C@H](C)c4cccc(Br)c4)c(C)c3C)c2cc1OC` [Example 62, N-[(1R)-1-(3-Bromophenyl)ethyl]-N′-{4-[(6,7-dimethoxy-4-quinolyl)oxy]-2,3-dimethylphenyl}urea] was 7.53.
On to `COc1cc2nccc(Oc3ccc(NC(=O)N[C@H](C)c4nccs4)cc3)c2cc1OC` [Example 79, N-{4-[(6,7-Dimethoxy-4-quinolyl)oxy]phenyl}-N′-[(1R)-1-(1,3-thiazol-2-yl)ethyl]urea], for which the pIC50 was 8.16.
The value for `COc1cc2nccc(Oc3ccc(NC(=O)N[C@H](C)c4ccc(F)cc4)c(C(F)(F)F)c3)c2cc1OC` [Example 21, N-[4-[(6,7-Dimethoxy-4-quinolyl)oxy]-2-(trifluoromethyl)phenyl]-N′-[(1R)-1-(4-fluorophenyl)ethyl]urea] was 8.01; that for `COc1cc2nccc(Oc3ccc(NC(=O)NC(C)c4nc(C)cs4)c(F)c3)c2cc1OC` (stereo not shown) [Example 88, N-{4-[(6,7-Dimethoxy-4-quinolyl)oxy]-2-fluorophenyl}-N′-[1-(4-methyl-1,3-thiazol-2-yl)ethyl]urea] was 8.54; that for `COc1cc2nccc(Oc3cc(C)c(NC(=O)N[C@@H](C)c4nccs4)cc3C)c2cc1OC` [Example 86, N-{4-[(6,7-Dimethoxy-4-quinolyl)oxy]-2,5-dimethylphenyl}-N′-[(1S)-1-(1,3-thiazol-2-yl)ethyl]urea] was 7.90.
The value for `COc1cc2nccc(Oc3ccc(NC(=O)N[C@@H](C)c4nccs4)c(F)c3)c2cc1OC` [Example 71, N-{4-[(6,7-Dimethoxy-4-quinolyl)oxy]-2-fluorophenyl}-N′-[(1S)-1-(1,3-thiazol-2-yl)ethyl]urea] was 8.52; that for `COc1cc2nccc(Oc3ccc(NC(=O)N[C@@H](C)c4ccc(F)cc4)cc3Cl)c2cc1OC` [Example 11, N-{3-Chloro-4-[(6,7-dimethoxy-4-quinolyl)oxy]phenyl}-N′-[(1S)-1-(4-fluorophenyl)ethyl]urea] was 7.93; that for `COc1cc2c(Oc3ccc(NC(=O)NC(C)c4ccc(F)cc4F)c(F)c3)ccnc2cc1OCCCN1CCOCC1` (stereo not shown) [Example 69, N-[1-(2,4-Difluorophenyl)ethyl]-N′-(2-fluoro-4-{[6-methoxy-7-(3-morpholinopropoxy)-4-quinolyl]oxy}phenyl)urea] was 7.94.
With `COc1cc2nccc(Oc3ccc(NC(=O)NC(C)c4ccc(F)cc4)cc3F)c2cc1OC` (stereo not shown) [Example 31, N-{4-[(6,7-Dimethoxy-4-quinolyl)oxy]-3-fluorophenyl}-N′-[1-(4-fluorophenyl)ethyl]urea], the pIC50 is 7.89.
